The series in a line: Three time point assay for plasma, brain and testes distribution after oral dosing. The format is in vivo, rat. Particulars: rat, oral dosing. The protocol: Exemplary compounds were tested for distribution in plasma, brain and testes tissue following oral dosing of the compounds in rats. Procedures and results are described below.
Male SD Rats were group-housed (up to four animals/sex/cage) in polysulfone cages with certified aspen wood bedding during acclimation and study period.
Certified rodent diet and water was provided to all animals ad libitum, unless fasting for study procedures.
Appropriate amount of test article was accurately weighed and mixed with an appropriate volume of vehicle to get a clear solution or a uniform suspension; vortexing or sonication in water bath may also be need. Animals were dosed within four hours after the formulation is prepared.
For PO dosing, the dose formulation was administered via oral gavage following facility SOPs. The dose volume was determined by the animals' body weight collected on the morning of dosing day. The dose was 10 mg/kg.
Each blood collection (about 1 mL per time point at one or more of 0.5 h, 2 h, 3 h, 5.3 h, and 7 h) was performed from jugular vein or other suitable site of each animal into pre-chilled commercial EDTA-K2 tubes and placed on wet ice until centrifugation.
Blood samples were processed for plasma by centrifugation at approximately 4° C., 3,200 g for 10 min. Plasma was collected respectively and transferred into pre-labeled 96 well plate or polypropylene tubes, quick frozen over dry ice and kept at −60° C. or lower until LC-MS/MS analysis.
Rat brain was perfused with PBS to remove blood before harvest.
After perfusion, brain and testis were homogenized using homogenizing buffer (15 mM PBS (pH7.4):MeOH=2:1) at the ratio of 1:9 (1 g tissue with 9 mL buffer, the dilution ratio is 10). The brain homogenate was kept at −60° C. or lower until LC-MS/MS analysis. General sample processing procedure (brain homogenate & testis homogenate) using 96-well plate: • 1). An aliquot of 40 μL unknown sample, calibration standard, quality control and dilution quality control (if have), single blank, and double blank sample was added to the 96-well plate respectively; • 2). Each sample (except the double blank) was quenched with 400 μL of IS1 respectively (double blank sample was quenched with 400 μL of I), and then the mixture was vortex-mixed for 10 min at 800 rpm and centrifuged for 15 min at 3220×g, 4° C.; • 3). An aliquot of 50 μL supernatant was transferred to another clean 96-well plate and centrifuged for 5 min at 3220×g, 4° C., then the supernatant was directly injected for LC-MS/MS analysis.
• 1. A LC-MS/MS method for the quantitative determination of test compound in biological matrix was developed under Non-GLP compliance. • 2. A calibration curve with at least 6 non-zero calibration standards was applied for the method including LLOQ. • 3. A set of QCs consisting of low, middle, and high concentrations were applied for the method. • 4. N in 1 cassette LC-MS/MS method was developed for samples coming from different studies and the interference among all cassette analytes was evaluated during the method development. • 5. Cassette administration assay was performed if the mass difference (Δmass) among different analytes was more than 4 Da. In this case, interference evaluation was not necessary.
• 1. If sample number within a batch was ≤12, at least one set of standard curve separated with two parts through begin and end of the sequence, was included in the run, and QCs were not required. The recommended injection order was C8, C6, C4, C2, study samples, C7, C5, C3, C1. • 2. If sample number within a batch was >12, one standard curve and two sets of QCs with low, middle and high concentrations were applied for bioanalysis. Meanwhile, QCs number should be more than 5% of study sample number. • 3. Samples with the same types of matrix in different studies were quantified in one analysis run by using the developed N in 1 cassette LC-MS/MS method. • 4. […]

Under “time point 2 h”, `COC(=O)N1CC(c2nc(-c3ccc(Cl)c(NC(=O)c4cnc5ccccn45)c3)no2)C1` [Compound I-339] returned a Brain concentration of 603 ng/g, a Kp brain/plasma of 0.50, a Kp testes/plasma of 0.79 and a Plasma concentration of 1200 ng/mL. The Testes concentration (time point 2 h) is given as 947 ng/g.

Where the note is “time point 2 h”, `Cc1ccc(-c2noc(C3(N)CC4(CC(F)(F)C4)C3)n2)cc1NC(=O)c1cnc2ccccn12` [Compound I-307] came in with a Brain concentration of 82.4 ng/g, a Kp brain/plasma of 0.21, a Kp testes/plasma of 1.19 and a Plasma concentration of 389 ng/mL. This compound came in with a Testes concentration (time point 2 h) of 464 ng/g.

For the setting “time point 2 h”, `Cc1ccc(-c2noc(C3CC(OCCF)C3)n2)cc1NC(=O)c1cnc2ccccn12` (centres unmarked) [Compound I-369] displayed a Brain concentration of 1940 ng/g, a Kp brain/plasma of 1.19, a Kp testes/plasma of 1.27 and a Plasma concentration of 1630 ng/mL. This compound registered a Testes concentration (time point 2 h) of 2060 ng/g.

Under “time point 2 h”, `Cc1cc(C)cc(Nc2ccc3ncc(C(=O)Nc4cc(-c5noc([C@H]6C[C@@H]6F)n5)ccc4C)n3c2)c1` [Compound I-299] registered a Brain concentration of 101 ng/g, a Kp brain/plasma of 0.47, a Kp testes/plasma of 0.92 and a Plasma concentration of 216 ng/mL. Moreover, the Testes concentration (time point 2 h) is reported as 198 ng/g.

On to `COc1ccn2c(C(=O)Nc3cc(-c4noc(CC(O)C(F)F)n4)ccc3C)cnc2c1` (single isomer, unassigned) [Compound I-76], for which, where the note is “time point 3 h”, the Brain concentration was determined as 55.9 ng/g, the Kp brain/plasma was 0.09, the Kp testes/plasma is given as 0.41 and the Plasma concentration is 598 ng/mL. The compound also came in with a Testes concentration (time point 3 h) of 246 ng/g.

For `Cc1ccc(-c2noc([C@H]3C[C@@H]3F)n2)cc1NC(=O)c1cnc2ccc(C#N)cn12` [Compound I-384], under “time point 2 h”, the Brain concentration is given as 21.4 ng/g, the Kp brain/plasma is listed as 0.53, the Kp testes/plasma is on record as 1.49 and the Plasma concentration was determined as 40.6 ng/mL. The compound also showed a Testes concentration (time point 2 h) of 60.7 ng/g.

On to `Cc1ccc(-c2noc([C@@H](C)O)n2)cc1NC(=O)c1cnc2ccccn12` [Compound I-270], for which, under “time point 2 h”, the Brain concentration is 25.6 ng/g, the Kp brain/plasma is recorded as 0.06, the Kp testes/plasma was 0.09 and the Plasma concentration amounted to 422 ng/mL. Under “time point 2 h”, this compound gave a Testes concentration of 39.3 ng/g.

Where the note is “time point 2 h”, `Cc1ccc(-c2noc([C@H]3C[C@@H]3F)n2)cc1NC(=O)c1cnc2cc(N3CCC3)ccn12` [Compound I-295] had a Brain concentration of 377 ng/g, a Kp brain/plasma of 0.18, a Kp testes/plasma of 0.49 and a Plasma concentration of 2080 ng/mL. In addition, the Testes concentration (time point 2 h) stood at 1020 ng/g.

For the setting “time point 2 h”, `Cc1ccc(-c2noc(C(C)NS(C)(=O)=O)n2)cc1NC(=O)c1cnc2ccccn12` (single isomer, unassigned) [Compound I-237] gave a Brain concentration of 0 ng/g, a Kp testes/plasma of 0.18, a Plasma concentration of 1090 ng/mL and a Testes concentration of 192 ng/g.

Where the note is “time point 2 h”, `Cc1ccc(-c2noc(C(C)NS(C)(=O)=O)n2)cc1NC(=O)c1cnc2ccccn12` (single isomer, unassigned) [Compound I-238] registered a Brain concentration of 0 ng/g, a Kp testes/plasma of 0.17, a Plasma concentration of 791 ng/mL and a Testes concentration of 131 ng/g.

For the setting “time point 2 h”, `Cc1ccc(-c2noc(C3(O)CC(F)(F)C3)n2)cc1NC(=O)c1cnc2ccccn12` [Compound I-380] came in with a Brain concentration of 28.2 ng/g, a Kp brain/plasma of 0.06, a Kp testes/plasma of 0.09 and a Plasma concentration of 477 ng/mL. For the same compound, the Testes concentration (time point 2 h) was 44.8 ng/g.

The values are drawn from patent publication US20240254119A1 (THIRD HARMONIC BIO, INC., priority 2022, published 2024).
